Columns and labels:
Assay type in all cases: biochemical
Abl (h) = Abl (h) (Homo sapiens, UniProt P00519); assay: Abl human kinase assay (glass-fiber filter); conditions: test concentration of 10^−6M; for inhibition at 1 µM: read-out: C1 score (inhibition of Abl human)
cSRC (h) = cSRC (h) (Homo sapiens, UniProt P12931); assay: cSRC human kinase assay (glass-fiber filter); conditions: test concentration of 10^−6M; for inhibition at 1 µM: read-out: C3 score (inhibition of cSRC human)
Summary of the method: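 Radiometric assay: kinase and substrate are incubated with [33P]ATP, with the reaction started by MgATP mix. The reaction is spotted on P30 filtermat, washed in 75 mM phosphoric acid and methanol, and the bound 33P is measured by scintillation counting.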

EGFR (h) = EGFR (h) (Homo sapiens, UniProt P00533); assay: EGFR human kinase assay (glass-fiber filter); conditions: test concentration of 10^−6M
Protocol: (§1) In the glass-fiber filter technology the activity of the kinase of interest is measured using an appropriate substrate that is incubated with the aforementioned kinase protein in the presence of (^33P) radiolabeled ATP. (^33P) Phosphorylation of the substrate is subsequently measured as radioactivity bound on a glass fiber-filter.
(§2) All kinases are pre-diluted to a 10× working concentration prior to addition into the assay. The composition of the dilution buffer for each kinase is detailed below.
(§3) In a final reaction volume of 25 μl, EGFR (h) (5-10 mU) is incubated with 8 mM MOPS pH 7.0, 0.2 mM EDTA, 10 mM MnCl2, 0.1 mg/ml poly(Glu, Tyr) 4:1, 10 mM MgAcetate and [γ-^33P-ATP] (specific activity approx. 500 cpm/pmol, concentration as required). The reaction is initiated by the addition of the MgATP mix. After incubation for 40 minutes at room temperature, the reaction is stopped by the addition of 5 μl of a 3% phosphoric acid solution. 10 μl of the reaction is then spotted onto a Filtermat A and washed three times for 5 minutes in 75 mM phosphoric acid and once in methanol prior to drying and scintillation counting.

Fes (h) = Fes (h) (Homo sapiens, UniProt P07332); assay: Fes human kinase assay (glass-fiber filter); conditions: test concentration of 10^−6M; for inhibition at 1 µM: read-out: C4 score (inhibition of Fes human)
Protocol: as §1, §2
as §3, with “Fes” for “EGFR”, “EDTA,” for “EDTA, 10 mM MnCl2,”

Flt3 (h) = Flt3 (h) (Homo sapiens, UniProt P36888); assay: Flt3 human kinase assay (glass-fiber filter); conditions: test concentration of 10^−6M; for inhibition at 1 µM: read-out: C6 score (inhibition of Flt3 human)
Summary of the method: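 Human Flt3 (5-10 mU) with 50 μM peptide substrate in 8 mM MOPS pH 7.0, 0.2 mM EDTA, 10 mM Mg acetate and [γ-33P]ATP (concentration as required), 40 min at room temperature. Reaction stopped with phosphoric acid; substrate 33P incorporation counted on P30 glass-fiber filter.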

GSK3B (h) = GSK3B (h) (Homo sapiens, UniProt P49841); assay: GSK3β human kinase assay (glass-fiber filter); conditions: test concentration of 10^−6M; for inhibition at 1 µM: read-out: C8 score (inhibition of GSK3β human)
Chain of GSK3B (h) (P49841 whole entry): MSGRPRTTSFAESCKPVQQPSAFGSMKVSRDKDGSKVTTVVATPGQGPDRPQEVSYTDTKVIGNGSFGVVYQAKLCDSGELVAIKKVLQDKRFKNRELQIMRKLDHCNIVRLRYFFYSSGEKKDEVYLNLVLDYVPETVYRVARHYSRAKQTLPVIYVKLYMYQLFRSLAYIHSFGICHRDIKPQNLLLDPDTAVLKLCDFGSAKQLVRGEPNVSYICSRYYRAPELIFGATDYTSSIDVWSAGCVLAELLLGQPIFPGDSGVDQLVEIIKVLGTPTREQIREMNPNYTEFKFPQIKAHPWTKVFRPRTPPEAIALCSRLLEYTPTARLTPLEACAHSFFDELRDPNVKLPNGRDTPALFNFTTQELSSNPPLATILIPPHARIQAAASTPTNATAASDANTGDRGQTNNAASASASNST
Protocol: The in vitro inhibition of a panel of kinases was assessed using either the glass-fiber filter technology as described by Davies, S. P. et al., Biochem J. (2000), 351; p. 95-105.
as §1, §2
as §3, with “GSK3B” for “EGFR”, “20 μM […](p)EDEEE (phospho GS2 peptide),” for “10 mM MnCl2, 0.1 mg/ml poly(Glu, Tyr) 4:1,”, “P30 filtermat” for “Filtermat A”, “50” for “75”

Lck (h) = Lck (h) (Homo sapiens, UniProt P06239); assay: Lck human kinase assay (glass-fiber filter); conditions: test concentration of 10^−6M; for inhibition at 1 µM: read-out: C9 score (inhibition of Lck human)
Chain of Lck (h) (P06239 whole entry): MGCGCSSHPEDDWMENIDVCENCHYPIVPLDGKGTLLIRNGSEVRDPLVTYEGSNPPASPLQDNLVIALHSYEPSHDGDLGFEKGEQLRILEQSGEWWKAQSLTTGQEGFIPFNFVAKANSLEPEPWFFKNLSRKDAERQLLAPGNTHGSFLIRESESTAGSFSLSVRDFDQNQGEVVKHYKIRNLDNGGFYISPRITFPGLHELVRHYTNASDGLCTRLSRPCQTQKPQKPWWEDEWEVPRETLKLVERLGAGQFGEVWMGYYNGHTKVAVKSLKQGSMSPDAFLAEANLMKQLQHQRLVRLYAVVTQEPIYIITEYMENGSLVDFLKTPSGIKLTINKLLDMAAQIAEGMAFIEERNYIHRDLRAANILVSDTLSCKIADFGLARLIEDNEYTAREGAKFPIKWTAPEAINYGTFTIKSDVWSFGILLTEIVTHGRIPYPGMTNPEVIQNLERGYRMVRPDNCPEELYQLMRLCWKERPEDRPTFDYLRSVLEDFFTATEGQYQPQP
Summary of the method: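 Kinase activity measured as transfer of (^33P) from radiolabeled MgATP to substrate, captured on P30 glass-fiber filtermat, washed in 75 mM phosphoric acid and methanol, then scintillation counted.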

Lyn (h) = Lyn (h) (Homo sapiens, UniProt P07948); assay: Lyn human kinase assay (glass-fiber filter); conditions: test concentration of 10^−6M; for inhibition at 1 µM: read-out: C10 score (inhibition of Lyn human)
Chain of Lyn (h) (P07948 whole entry): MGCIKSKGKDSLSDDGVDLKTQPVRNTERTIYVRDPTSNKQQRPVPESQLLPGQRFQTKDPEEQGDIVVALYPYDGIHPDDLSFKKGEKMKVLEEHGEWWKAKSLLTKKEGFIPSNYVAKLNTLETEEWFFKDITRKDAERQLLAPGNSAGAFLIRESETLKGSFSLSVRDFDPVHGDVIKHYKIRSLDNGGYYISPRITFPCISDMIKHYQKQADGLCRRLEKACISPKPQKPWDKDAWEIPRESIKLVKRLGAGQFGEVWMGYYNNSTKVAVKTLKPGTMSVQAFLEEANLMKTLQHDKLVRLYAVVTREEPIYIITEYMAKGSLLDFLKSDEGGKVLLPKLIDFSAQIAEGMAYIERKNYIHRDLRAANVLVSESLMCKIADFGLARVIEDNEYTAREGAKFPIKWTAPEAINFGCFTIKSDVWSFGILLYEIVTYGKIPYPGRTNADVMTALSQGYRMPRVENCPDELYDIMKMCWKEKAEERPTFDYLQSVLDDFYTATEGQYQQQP
Summary of the method: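 Human Lyn (5-10 mU) phosphorylating poly(Glu,Tyr) 4:1 at 0.1 mg/ml with [γ-33P]ATP (concentration as required) in 50 mM Tris pH 7.5, 10 mM Mg acetate, 40 min at room temperature. Stopped with phosphoric acid; substrate-bound radioactivity counted on glass-fibre filter.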

Yes (h) = Yes (h) (Homo sapiens, UniProt P07947); assay: Yes human kinase assay (glass-fiber filter); conditions: test concentration of 10^−6M; for inhibition at 1 µM: read-out: C11 score (inhibition of Yes human)
Chain of Yes (h) (P07947 whole entry): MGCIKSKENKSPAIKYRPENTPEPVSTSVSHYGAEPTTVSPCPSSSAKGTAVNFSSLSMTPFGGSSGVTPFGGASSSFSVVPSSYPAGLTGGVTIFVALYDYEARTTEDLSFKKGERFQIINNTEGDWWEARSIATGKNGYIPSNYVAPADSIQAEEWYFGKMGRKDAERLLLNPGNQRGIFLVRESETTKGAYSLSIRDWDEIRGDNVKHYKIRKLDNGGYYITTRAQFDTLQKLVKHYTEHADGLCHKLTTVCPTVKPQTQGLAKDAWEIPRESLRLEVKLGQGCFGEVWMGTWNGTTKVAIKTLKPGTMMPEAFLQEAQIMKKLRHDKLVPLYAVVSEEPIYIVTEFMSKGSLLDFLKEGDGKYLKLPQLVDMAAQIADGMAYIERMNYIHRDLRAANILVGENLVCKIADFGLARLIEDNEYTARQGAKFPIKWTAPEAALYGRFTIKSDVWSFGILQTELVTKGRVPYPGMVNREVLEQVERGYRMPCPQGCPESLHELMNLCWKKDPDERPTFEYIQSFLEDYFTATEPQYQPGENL
Summary of the method: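 Yes (h) (5-10 mU) with 0.1 mg/ml poly(Glu, Tyr) 4:1 in 8 mM MOPS pH 7.0, 0.2 mM EDTA, 10 mM MgAcetate and [γ-^33P-ATP], 40 minutes at room temperature. Stopped with phosphoric acid; substrate-bound ^33P counted on glass-fiber filter by scintillation.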

Fms (h) = Fms (h) (Homo sapiens, UniProt P07333); assay: Fms human kinase assay (glass-fiber filter); conditions: test concentration of 10^−6M; read-out: C7 score (inhibition of Fms human)
Chain of Fms (h) (P07333 20-972): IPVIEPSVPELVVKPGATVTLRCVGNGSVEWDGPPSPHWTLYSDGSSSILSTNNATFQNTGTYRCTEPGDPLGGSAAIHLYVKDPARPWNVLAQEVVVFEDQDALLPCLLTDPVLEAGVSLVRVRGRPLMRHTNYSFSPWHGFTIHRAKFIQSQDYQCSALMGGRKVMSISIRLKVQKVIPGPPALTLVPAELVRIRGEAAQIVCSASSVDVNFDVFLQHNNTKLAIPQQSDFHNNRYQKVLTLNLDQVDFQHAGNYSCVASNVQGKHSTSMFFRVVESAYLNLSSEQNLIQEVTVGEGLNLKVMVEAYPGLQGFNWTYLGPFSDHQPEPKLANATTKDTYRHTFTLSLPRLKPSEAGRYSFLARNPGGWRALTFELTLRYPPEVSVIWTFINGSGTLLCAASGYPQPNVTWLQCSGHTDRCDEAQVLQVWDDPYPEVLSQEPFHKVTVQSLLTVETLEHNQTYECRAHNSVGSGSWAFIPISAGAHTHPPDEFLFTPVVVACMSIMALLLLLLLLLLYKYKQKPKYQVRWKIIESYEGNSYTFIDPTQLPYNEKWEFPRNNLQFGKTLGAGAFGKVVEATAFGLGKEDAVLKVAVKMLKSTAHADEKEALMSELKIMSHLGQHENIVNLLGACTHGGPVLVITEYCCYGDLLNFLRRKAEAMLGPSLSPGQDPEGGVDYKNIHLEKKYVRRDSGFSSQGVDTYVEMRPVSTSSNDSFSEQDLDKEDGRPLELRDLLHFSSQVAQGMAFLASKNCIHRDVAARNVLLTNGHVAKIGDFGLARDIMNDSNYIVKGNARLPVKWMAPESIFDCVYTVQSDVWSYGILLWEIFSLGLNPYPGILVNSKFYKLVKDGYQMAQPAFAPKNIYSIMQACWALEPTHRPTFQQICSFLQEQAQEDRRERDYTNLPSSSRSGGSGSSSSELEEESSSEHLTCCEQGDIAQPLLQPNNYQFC
Summary of the method: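 Radiometric filter-binding assay: Fms (5-10 mU) with 250 μM peptide substrate and [γ-33P]ATP in 8 mM MOPS pH 7.0, 10 mM Mg acetate, 40 min at room temperature. Reaction stopped with phosphoric acid; substrate-bound 33P counted on P30 filtermat.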

CSK (h) = CSK (h) (Homo sapiens, UniProt P41240); assay: CSK human kinase assay (glass-fiber filter); conditions: test concentration of 10^−6M; for inhibition at 1 µM: read-out: C2 score (inhibition of CSK human)
Chain of CSK (h) (P41240 whole entry): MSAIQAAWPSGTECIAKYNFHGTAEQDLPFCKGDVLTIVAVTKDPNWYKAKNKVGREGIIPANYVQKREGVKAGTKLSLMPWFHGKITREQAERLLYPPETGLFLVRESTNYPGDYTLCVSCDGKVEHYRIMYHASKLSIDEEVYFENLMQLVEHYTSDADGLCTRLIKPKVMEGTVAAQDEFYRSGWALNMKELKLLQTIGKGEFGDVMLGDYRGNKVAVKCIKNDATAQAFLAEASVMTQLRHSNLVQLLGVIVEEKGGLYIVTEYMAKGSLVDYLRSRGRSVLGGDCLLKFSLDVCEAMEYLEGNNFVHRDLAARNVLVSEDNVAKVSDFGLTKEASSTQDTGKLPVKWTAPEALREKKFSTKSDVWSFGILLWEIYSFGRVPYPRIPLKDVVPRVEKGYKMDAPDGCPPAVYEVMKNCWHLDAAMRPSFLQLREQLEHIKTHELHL
Protocol: as §1, §2
In a final reaction volume of 25 μl, CSK (h) (5-10 mU) is incubated with 50 mM Tris pH 7.5, 0.1 mM EGTA, 0.1 mM Na3VO4, 0.1% β-mercaptoethanol, 0.1 mg/ml poly(Glu, Tyr) 4:1, 10 mM MnCl2, 10 mM MgAcetate and [γ-^33P-ATP] (specific activity approx. 500 cpm/pmol, concentration as required). The reaction is initiated by the addition of the MgATP mix. After incubation for 40 minutes at room temperature, the reaction is stopped by the addition of 5 μl of a 3% phosphoric acid solution. 10 μl of the reaction is then spotted onto a Filtermat A and washed three times for 5 minutes in 75 mM phosphoric acid and once in methanol prior to drying and scintillation counting.

Chain of Abl (h) (P00519 whole entry): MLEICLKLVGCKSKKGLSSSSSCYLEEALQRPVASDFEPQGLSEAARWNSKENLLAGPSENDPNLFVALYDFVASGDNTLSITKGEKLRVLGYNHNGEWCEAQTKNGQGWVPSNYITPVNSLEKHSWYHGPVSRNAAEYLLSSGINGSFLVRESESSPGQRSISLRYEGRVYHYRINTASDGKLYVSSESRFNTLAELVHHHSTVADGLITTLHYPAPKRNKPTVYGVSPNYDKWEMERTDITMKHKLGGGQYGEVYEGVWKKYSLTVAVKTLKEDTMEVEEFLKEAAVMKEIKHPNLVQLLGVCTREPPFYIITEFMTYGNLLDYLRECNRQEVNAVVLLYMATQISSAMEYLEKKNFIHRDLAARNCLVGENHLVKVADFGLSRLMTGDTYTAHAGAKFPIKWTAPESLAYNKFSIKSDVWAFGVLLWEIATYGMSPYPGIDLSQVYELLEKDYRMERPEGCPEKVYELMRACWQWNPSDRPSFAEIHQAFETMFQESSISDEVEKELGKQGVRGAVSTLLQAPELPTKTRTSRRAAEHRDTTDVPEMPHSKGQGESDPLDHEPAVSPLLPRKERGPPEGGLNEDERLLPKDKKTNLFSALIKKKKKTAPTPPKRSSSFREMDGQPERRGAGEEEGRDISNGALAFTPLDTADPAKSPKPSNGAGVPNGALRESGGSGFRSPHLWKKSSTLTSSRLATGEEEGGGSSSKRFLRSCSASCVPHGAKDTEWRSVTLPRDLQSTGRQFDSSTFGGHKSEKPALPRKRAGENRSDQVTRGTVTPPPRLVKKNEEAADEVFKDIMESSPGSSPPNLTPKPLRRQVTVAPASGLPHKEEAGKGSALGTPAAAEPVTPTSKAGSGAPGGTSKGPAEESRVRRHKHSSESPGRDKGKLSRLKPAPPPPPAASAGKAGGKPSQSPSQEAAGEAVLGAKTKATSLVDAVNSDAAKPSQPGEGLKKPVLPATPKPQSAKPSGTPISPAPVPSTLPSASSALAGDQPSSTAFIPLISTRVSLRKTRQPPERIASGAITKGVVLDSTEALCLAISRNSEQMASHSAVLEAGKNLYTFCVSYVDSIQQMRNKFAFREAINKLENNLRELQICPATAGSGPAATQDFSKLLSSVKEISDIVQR

| Compound | C1 score (inhibition of Abl human) (Abl (h)) | C3 score (inhibition of cSRC human) (cSRC (h)) | C4 score (inhibition of EGFR human) (EGFR (h)) | C4 score (inhibition of Fes human) (Fes (h)) | C9 score (inhibition of Lck human) (Lck (h)) | C10 score (inhibition of Lyn human) (Lyn (h)) | C11 score (inhibition of Yes human) (Yes (h)) | inhibition at 1 µM (Abl (h)) [%] | inhibition at 1 µM (cSRC (h)) [%] | inhibition at 1 µM (Fes (h)) [%] | inhibition at 1 µM (Flt3 (h)) [%] | inhibition at 1 µM (Fms (h)) [%] | inhibition at 1 µM (GSK3B (h)) [%] | inhibition at 1 µM (Yes (h)) [%] | inhibition at 1 µM (CSK (h)) [%] | inhibition at 1 µM (Lck (h)) [%] | inhibition at 1 µM (Lyn (h)) [%] | further results |
| --- | --- | --- | --- | --- | --- | --- | --- | --- | --- | --- | --- | --- | --- | --- | --- | --- | --- | --- |
| 1H,7H-12,8-metheno-6,2-nitrilo-13,1,5,7,17,20-benzoxapentaazacyclotricosine-3-carbonitrile, 24-chloro-14,15,16,17,18,19,20,21-octahydro-11-methoxy-20-methyl-18-oxo- [Compound 33] | 3 (Score 3=60-80% inhibition) | 4 (Score 4=>80% inhibition) | 3 (Score 3=60-80% inhibition) | 2 (Score 2=30-60% inhibition) | 3 (Score 3=60-80% inhibition) | 4 (Score 4=>80% inhibition) | 4 (Score 4=>80% inhibition) | – | – | – | – | – | – | – | – | – | – | C6 score (inhibition of Flt3 human) (Flt3 (h)): 4 (Score 4=>80% inhibition); C8 score (inhibition of GSK3β human) (GSK3B (h)): 2 (Score 2=30-60% inhibition) |
| N#Cc1cnc2nc1Nc1cccc(c1)OCCNC(=O)c1cccc(c1)N2 [Compound 20, 14-oxa-2,4,8,17,25-pentaazatetracyclo[17.3.1.1~3,7~.1~9,13~]pentacosa-1(23),3,5,7(25),9,11,13(24),19,21-nonaene-6-carbonitrile, 18-oxo-] | – | – | – | – | – | – | – | 10 to 30 | 10 to 30 | 10 to 30 | 30 to 60 | 10 to 30 | 60 to 80 | 10 to 30 | – | – | – | inhibition at 1 µM (EGFR (h); read-out: C4 score (inhibition of EGFR human)): 10 to 30% |
| O=C1NCCCCCOc2cccc(c2)Nc2ccnc(n2)Nc2cccc1c2 [Compound 22, 14-oxa-2,4,8,20,28-pentaazatetracyclo[20.3.1.1~3,7~.1~9,13~]octacosa-1(26),3,5,7(28),9,11,13(27),22,24-nonaen-21-one] | – | – | – | – | – | – | – | 10 to 30 | 10 to 30 | 10 to 30 | 30 to 60 | 10 to 30 | – | 10 to 30 | 10 to 30 | 10 to 30 | 10 to 30 | – |
| O=C1COc2cccc(c2)Nc2cc(ncn2)Nc2cccc(c2)CN2CCN1CC2 [Compound 42, 20-oxa-1,8,10,12,14,23-hexaazapentacyclo[21.2.2.1~3,7~.1~9,13~.1~15,19~]triaconta-3,5,7(30),9,11,13(29),15,17,19(28)-nonaen-22-one] | – | – | – | – | – | – | – | – | 10 to 30 | – | 30 to 60 | 30 to 60 | 10 to 30 | 60 to 80 | 30 to 60 | 30 to 60 | – | – |
| O=C1CCCCNC(=O)c2cccc(c2)Nc2cc(ncn2)Nc2cccc(c2)CN1 [Compound 58, 2,4,6,8,15,21-hexaazatetracyclo[21.3.1.1~3,7~.1~9,13~]nonacosa-1(27),3,5,7(29),9,11,13(28),23,25-nonaene-14,20-dione] | – | – | – | – | – | – | – | – | – | – | 10 to 30 | 30 to 60 | – | – | 60 to 80 | – | 10 to 30 | – |
| Cl.Cl.O=C1CNC(=O)Cc2ccc(Cl)cc2Nc2cc(ncn2)Nc2ccc(OCCCN3CCOCC3)c(c2)OCCN1 [Compound 107, 1H,7H-6,2:8,12-dimetheno-13,1,3,5,7,16,19-benzoxahexaazacyclotricosine-17,20(14H)-dione, 24-chloro-15,16,18,19,21-pentahydro-11-[3-(4-morpholinyl)propoxy]-, hydrochloric acid salt (1:2)] | 4 (Score 4=>80% inhibition) | 4 (Score 4=>80% inhibition) | 4 (Score 4=>80% inhibition) | 4 (Score 4=>80% inhibition) | 4 (Score 4=>80% inhibition) | 4 (Score 4=>80% inhibition) | 4 (Score 4=>80% inhibition) | – | – | – | – | – | – | – | – | – | – | C2 score (inhibition of CSK human) (CSK (h)): 3 (Score 3=60-80% inhibition) |

Reference: US8148388B2, “2,4 (4,6) pyrimidine derivatives” (Janssen Pharmaceutica, N.V., priority 2004, dated 2012)
